SMILES strings stand for the structures. Some results are limits rather than exact numbers.

The values that follow come from patent US8962627B2, “Oxime derivatives and their use as allosteric modulators of metabotropic glutamate receptors” (Prestwick Chemical, Inc., priority 2009, dated 2015).

Series [1] concerns the target T1, human mGluR4 transiently over-expressed in HEK-293 cells (Homo sapiens, UniProt Q14833).
T1 construct: expressed in transfected cells; host or cells: HEK-293 cells, transient co-transfection by electroporation
The experiment in a line: Human mGluR4 positive allosteric modulator evaluation using Ca++ functional assay. The class given is cell-based. As to conditions: for EC50: HEK-293 cells co-transfected with hmGluR4 and chimeric G protein, EC10 glutamate, intracellular calcium (Fluo4AM), read-out: mean EC50 of agonist/positive allosteric modulator activity on mGluR4. In a few lines:
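Fluo4AM-loaded HEK-293 cells expressing hmGluR4 plus a chimeric G protein were read for intracellular Ca2+ (ex 485, em 525 nm). PAM effect measured as potentiation of EC10 glutamate after a 60 s compound-alone agonist read; EC50 from variable-slope sigmoidal fits of 6–9 doses, duplicates, twice.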

T1 sequence (Q14833 33-912): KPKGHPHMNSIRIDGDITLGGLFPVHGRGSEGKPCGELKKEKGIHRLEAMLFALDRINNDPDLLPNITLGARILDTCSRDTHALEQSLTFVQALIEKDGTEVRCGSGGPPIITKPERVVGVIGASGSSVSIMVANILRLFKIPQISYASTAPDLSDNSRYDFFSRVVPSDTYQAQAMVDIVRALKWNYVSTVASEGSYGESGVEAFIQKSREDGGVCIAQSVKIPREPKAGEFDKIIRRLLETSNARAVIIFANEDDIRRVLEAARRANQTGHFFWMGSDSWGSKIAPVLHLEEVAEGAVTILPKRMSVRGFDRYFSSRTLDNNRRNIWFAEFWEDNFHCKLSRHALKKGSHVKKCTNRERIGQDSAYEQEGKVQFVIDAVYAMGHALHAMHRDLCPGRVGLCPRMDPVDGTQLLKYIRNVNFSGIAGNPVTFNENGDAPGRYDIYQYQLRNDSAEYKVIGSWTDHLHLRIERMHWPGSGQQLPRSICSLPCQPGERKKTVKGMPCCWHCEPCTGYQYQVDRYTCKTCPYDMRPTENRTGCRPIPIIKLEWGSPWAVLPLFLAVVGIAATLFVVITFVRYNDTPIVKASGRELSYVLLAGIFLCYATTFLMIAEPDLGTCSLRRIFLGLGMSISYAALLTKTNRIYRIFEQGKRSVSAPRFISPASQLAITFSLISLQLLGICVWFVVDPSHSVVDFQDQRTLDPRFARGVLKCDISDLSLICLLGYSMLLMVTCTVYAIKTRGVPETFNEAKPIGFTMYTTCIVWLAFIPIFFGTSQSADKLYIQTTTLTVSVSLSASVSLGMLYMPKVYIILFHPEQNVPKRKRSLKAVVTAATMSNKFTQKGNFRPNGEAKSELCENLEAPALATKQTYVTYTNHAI

Take `CN1CCN(CCOc2ccc3oc(-c4cc5cccn5cn4)cc(=NO)c3c2)CC1.Cl.Cl` [Example 93, 6-[2-(4-methyl-piperazin-1-yl)-ethoxy]-2-pyrrolo[1,2-c]pyrimidin-3-yl-chromen-4-one oxime, dihydrochloride]: the melting point was > 230 °C (dec.). Moreover, in series [1], the EC50 is below 5000 nM.
`CCc1ccc2oc(-c3cc4ccccc4cn3)cc(=NO)c2c1` [Example 37, 6-ethyl-2-isoquinolin-3-yl-chromen-4-one oxime] registered a melting point of 210 to 212 °C. For the same molecule, the EC50 in series [1] was below 1000 nM.
Consider `Cc1ccc2oc(-c3cc4ccccc4cn3)cc(=NO)c2c1` (mixture of isomers) [Example 5, 2-isoquinolin-3-yl-6-methyl-chromen-4-one oxime], for which the melting point was in the range of 260 to 264 °C. Besides, the EC50 in series [1] is below 1000 nM.
Turning to `Cl.ON=c1cc(-c2cc3cccn3cn2)oc2ccc(OCCN3CCC(O)C3)cc12` (stereo not shown) [Example 98, 6-[2-(3-hydroxy-pyrrolidin-1-yl)-ethoxy]-2-pyrrolo[1,2-c]pyrimidin-3-yl-chromen-4-one oxime, hydrochloride], the melting point was > 230 °C (dec.). Besides, the EC50 in series [1] is below 1000 nM.
For `ON=c1cc(-c2cc3ccccc3cn2)oc2cc(C#Cc3ccccn3)ccc12` [Example 24, 2-isoquinolin-3-yl-7-(pyridin-2-yl-ethynyl)-chromen-4-one oxime], in that order: 248 to 251 °C and below 5000 nM.
In turn, `ON=c1cc(-c2ccc3ccccc3c2)oc2ccccc12` [Example 74, 2-Naphthalen-2-yl-chromen-4-one oxime] came in with a melting point of 224 to 226 °C. Further, the “PAM activity on mGluR4” value in series [1] (up to 100 μM) is “no PAM activity”.
As for `Cl.ON=c1cc(-c2cn3cccc3cn2)oc2ccc(OCCn3ccnc3)cc12` [Example 125, 6-(2-Imidazol-1-yl-ethoxy)-2-pyrrolo[1,2-a]pyrazin-3-yl-chromen-4-one oxime, hydrochloride], the melting point fell in the range of 238 to 240 °C. Moreover, the EC50 in series [1] is below 1000 nM.
In the same order, the values of `ON=c1cc(-c2cc3ccccc3cn2)oc2cc(Br)ccc12` (mixture of isomers) [Example 2, 7-bromo-2-isoquinolin-3-yl-chromen-4-one oxime] are 279 to 283 °C and below 5000 nM.
In the same order, the values of `Cl.ON=c1cc(-c2cc3cccn3cn2)oc2cccc(OCCN3CCOCC3)c12` [Example 156, 5-(2-Morpholin-4-yl-ethoxy)-2-pyrrolo[1,2-c]pyrimidin-3-yl-chromen-4-one oxime, hydrochloride] are 200 to 205 °C and below 1000 nM.
In turn, `ON=c1cc(-c2cn3cccc3cn2)oc2ccc(OCCc3ccc(F)cc3)cc12` [Example 126, 6-[2-(4-Fluoro-phenyl)-ethoxy]-2-pyrrolo[1,2-a]pyrazin-3-yl-chromen-4-one oxime] returned a melting point of 248 to 250 °C. Also, the EC50 in series [1] was below 1000 nM.
In the same order, the values of `Cl.ON=c1cc(-c2cc3cccn3cn2)oc2ccc(OCCc3ccncc3)cc12` [Example 136, 6-(2-Pyridin-4-yl-ethoxy)-2-pyrrolo[1,2-c]pyrimidin-3-yl-chromen-4-one oxime, hydrochloride] are > 270 °C (dec.) and below 5000 nM.
In the same order, the values of `ON=c1cc(-c2cn3cccc3cn2)oc2ccccc12` [Example 91, 2-Pyrrolo[1,2-a]pyrazin-3-yl-chromen-4-one oxime] are above 276 °C and below 1000 nM.
In turn, `ON=c1cc(-c2cc3ccccc3cn2)oc2ccccc12` (mixture of isomers) [Example 1, 2-isoquinolin-3-yl-chromen-4-one oxime] came in with a melting point of 247 to 249 °C. In addition, the EC50 in series [1] is below 1000 nM.
In the same order, the values of `ON=c1cc(-c2cc3ccccc3cn2)oc2ccc(F)cc12` (mixture of isomers) [Example 6, 6-fluoro-2-isoquinolin-3-yl-chromen-4-one oxime] are 278 to 280 °C and below 5000 nM.
In the same order, the values of `ON=c1cc(-c2cc3ccccc3cn2)oc2cc(/C=C/c3ccccc3)ccc12` (mixture of isomers) [Example 21, 2-isoquinolin-3-yl-7-((E)-styryl)-chromen-4-one oxime] are 273 to 276 °C and below 5000 nM.
For `ON=c1cc(-c2cc3ccccc3cn2)oc2ccc(C(F)(F)F)cc12` (mixture of isomers) [Example 11, 2-isoquinolin-3-yl-6-trifluoromethyl-chromen-4-one oxime], in that order: 245 to 247 °C and below 5000 nM.
For the molecule `Cl.ON=c1cc(-c2cc3cccn3cn2)oc2ccc(OCCN3CCCCC3)cc12` [Example 88, 6-(2-Piperidin-1-yl-ethoxy)-2-pyrrolo[1,2-c]pyrimidin-3-yl-chromen-4-one oxime, hydrochloride], the melting point is > 255 °C (dec.). Also, the EC50 in series [1] is below 5000 nM.
In the same order, the values of `ON=c1cc(-c2cc3cccn3cn2)oc2ccc(OCCc3cccc(F)c3)cc12` [Example 138, 6-[2-(3-Fluoro-phenyl)-ethoxy]-2-pyrrolo[1,2-c]pyrimidin-3-yl-chromen-4-one, oxime] are 205 to 207 °C and below 1000 nM.
For `Cl.ON=c1cc(-c2cc3cccn3cn2)oc2ccc(OCCCc3ccncc3)cc12` [Example 159, 6-(3-Pyridin-4-yl-propoxy)-2-pyrrolo[1,2-c]pyrimidin-3-yl-chromen-4-one oxime, hydrochloride], the melting point lay within 210 to 215 °C. In series [1], the EC50 was below 1000 nM.
For `C=Cc1ccc2oc(-c3cc4ccccc4cn3)cc(=NO)c2c1` [Example 36, 2-isoquinolin-3-yl-6-(vinyl)-chromen-4-one oxime], in that order: 198 to 200 °C and below 5000 nM.
In the same order, the values of `COCCOc1ccc2c(=NO)cc(-c3cc4ccccc4cn3)oc2c1` (mixture of isomers) [Example 57, 2-isoquinolin-3-yl-7-(2-methoxy-ethoxy)-chromes-4-one oxime] are 223 to 225 °C and below 5000 nM.
Molecule `ON=c1cc(-c2cc3cccn3cn2)oc2ccc(OCCc3cccc(C(F)(F)F)c3)cc12` [Example 141, 2-Pyrrolo[1,2-c]pyrimidin-3-yl-6-[2-(3-trifluoromethyl-phenyl)-ethoxy]-chromen-4-one oxime] displayed a melting point of 217 to 218 °C. Besides, the EC50 in series [1] is below 1000 nM.
Molecule `ON=c1cc(-c2cc3ccccc3cn2)oc2cc(C#Cc3cccc(O)c3)ccc12` (mixture of isomers) [Example 30, 7-(3-hydroxyphenyl)ethynyl-2-isoquinolin-3-yl-chromen-4-one oxime] returned a melting point of 255 to 259 °C. The EC50 in series [1] is below 5000 nM.
On to `COCCOCC#Cc1ccc2c(=NO)cc(-c3cc4ccccc4cn3)oc2c1` (mixture of isomers) [Example 54, 2-Isoquinolin-3-yl-7-[3-(2-methoxy-ethoxy)-prop-1-ynyl]-chromen-4-one oxime], for which the melting point lay within 158 to 160 °C. Besides, in series [1], the EC50 was below 5000 nM.
For `OCCC#Cc1ccc2c(=NO)cc(-c3cc4ccccc4cn3)oc2c1` (mixture of isomers) [Example 52, 7-(4-Hydroxy-but-1-ynyl)-2-isoquinolin-3-yl-chromen-4-one oxime], the melting point fell in the range of 238 to 240 °C. In addition, in series [1], the EC50 is below 5000 nM.
As to `Cc1ccc2cnc(-c3cc(=NO)c4ccccc4o3)cc2c1` (mixture of isomers) [Example 15, 2-(6-methyl-isoquinolin-3-yl)-chromen-4-one oxime], the melting point was in the range of 245 to 247 °C. In addition, the EC50 in series [1] is below 5000 nM.
In the same order, the values of `Cl.ON=c1cc(-c2cc3sccc3cn2)oc2ccc(OCCN3CCC(F)(F)CC3)cc12` [Example 128, 6-[2-(4,4-Difluoro-piperidin-1-yl)-ethoxy]-2-thieno[3,2-c]pyridin-6-yl-chromen-4-one oxime, hydrochloride] are 225 to 230 °C and below 1000 nM.
For `ON=c1cc(-c2cc3cccn3cn2)oc2ccc(OCCCOc3cccnc3)cc12` [Example 149, 6-[3-(Pyridin-3-yloxy)-propoxy]-2-pyrrolo[1,2-c]pyrimidin-3-yl-chromen-4-one oxime], in that order: 202 to 205 °C and below 1000 nM.
On to `COC1CCCN(CCOc2ccc3oc(-c4cc5cccn5cn4)cc(=NO)c3c2)C1.Cl` (stereo not shown) [Example 108, 6-[2-(3-methoxy-piperidin-1-yl)-ethoxy]-2-pyrrolo[1,2-c]pyrimidin-3-yl-chromen-4-one oxime, hydrochloride], for which the melting point was 178 to 184 °C. The EC50 in series [1] is below 1000 nM.
For `CN(C)c1ccc2oc(-c3cc4ccccc4cn3)cc(=NO)c2c1` [Example 39, 6-dimethylamino-2-isoquinolin-3-yl-chromen-4-one oxime], in that order: 223 to 225 °C and below 5000 nM.
`Cl.ON=c1cc(-c2cc3ccsc3cn2)oc2ccc(OCCN3CCOCC3)cc12` [Example 158, 6-(2-Morpholin-4-yl-ethoxy)-2-thieno[2,3-c]pyridin-5-yl-chromen-4-one oxime, hydrochloride]: the melting point lay within 258 to 260 °C. Also, the EC50 in series [1] is below 1000 nM.
In the same order, the values of `COc1cccc2oc(-c3cc4cccn4cn3)cc(=NO)c12` [Example 139, 5-Methoxy-2-pyrrolo[1,2-c]pyrimidin-3-yl-chromen-4-one oxime] are 240 to 243 °C and below 1000 nM.
